How the values were obtained:
Assay in all cases: biochemical
Assay type in all cases: biochemical
[1] = molecular target: T1, 363 human kinases (including Aurora A/B/C) (Homo sapiens, UniProt Q9NR20); details: DYRK4, [ATP] 2.5 µM; for remaining activity at 0.1 µM: 100 nM; for remaining activity at 0.1 µM / remaining activity at 0.5 µM: read-out: % Enzyme Activity (relative to DMSO controls)
T1 sequence (Q9NR20 1-520): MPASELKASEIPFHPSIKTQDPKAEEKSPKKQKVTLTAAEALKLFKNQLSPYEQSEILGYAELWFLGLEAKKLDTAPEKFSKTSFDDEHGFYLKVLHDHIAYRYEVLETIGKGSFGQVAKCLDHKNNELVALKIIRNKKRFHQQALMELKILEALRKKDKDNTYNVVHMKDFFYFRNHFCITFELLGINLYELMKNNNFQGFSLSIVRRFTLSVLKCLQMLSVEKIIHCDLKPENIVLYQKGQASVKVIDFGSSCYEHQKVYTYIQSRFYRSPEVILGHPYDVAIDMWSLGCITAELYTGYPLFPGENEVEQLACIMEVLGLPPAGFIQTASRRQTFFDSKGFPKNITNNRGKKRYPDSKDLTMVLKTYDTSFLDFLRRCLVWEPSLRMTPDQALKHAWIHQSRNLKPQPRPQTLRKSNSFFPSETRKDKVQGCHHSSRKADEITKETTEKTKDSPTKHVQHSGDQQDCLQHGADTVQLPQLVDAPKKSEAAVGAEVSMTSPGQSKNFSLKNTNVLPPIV
Excerpt: (§1) However, the Aurora A/B selectivity ratios derived from our in vitro and in vivo data can be compared to prioritize inhibitors.

[2] = molecular target: T2, 363 human kinases (including Aurora A/B/C) (Homo sapiens, UniProt Q9NRM7); details: LATS2; for remaining activity at 0.1 µM: 100 nM; for remaining activity at 0.1 µM / remaining activity at 0.5 µM: read-out: % Enzyme Activity (relative to DMSO controls)
T2 sequence (Q9NRM7 1-1088): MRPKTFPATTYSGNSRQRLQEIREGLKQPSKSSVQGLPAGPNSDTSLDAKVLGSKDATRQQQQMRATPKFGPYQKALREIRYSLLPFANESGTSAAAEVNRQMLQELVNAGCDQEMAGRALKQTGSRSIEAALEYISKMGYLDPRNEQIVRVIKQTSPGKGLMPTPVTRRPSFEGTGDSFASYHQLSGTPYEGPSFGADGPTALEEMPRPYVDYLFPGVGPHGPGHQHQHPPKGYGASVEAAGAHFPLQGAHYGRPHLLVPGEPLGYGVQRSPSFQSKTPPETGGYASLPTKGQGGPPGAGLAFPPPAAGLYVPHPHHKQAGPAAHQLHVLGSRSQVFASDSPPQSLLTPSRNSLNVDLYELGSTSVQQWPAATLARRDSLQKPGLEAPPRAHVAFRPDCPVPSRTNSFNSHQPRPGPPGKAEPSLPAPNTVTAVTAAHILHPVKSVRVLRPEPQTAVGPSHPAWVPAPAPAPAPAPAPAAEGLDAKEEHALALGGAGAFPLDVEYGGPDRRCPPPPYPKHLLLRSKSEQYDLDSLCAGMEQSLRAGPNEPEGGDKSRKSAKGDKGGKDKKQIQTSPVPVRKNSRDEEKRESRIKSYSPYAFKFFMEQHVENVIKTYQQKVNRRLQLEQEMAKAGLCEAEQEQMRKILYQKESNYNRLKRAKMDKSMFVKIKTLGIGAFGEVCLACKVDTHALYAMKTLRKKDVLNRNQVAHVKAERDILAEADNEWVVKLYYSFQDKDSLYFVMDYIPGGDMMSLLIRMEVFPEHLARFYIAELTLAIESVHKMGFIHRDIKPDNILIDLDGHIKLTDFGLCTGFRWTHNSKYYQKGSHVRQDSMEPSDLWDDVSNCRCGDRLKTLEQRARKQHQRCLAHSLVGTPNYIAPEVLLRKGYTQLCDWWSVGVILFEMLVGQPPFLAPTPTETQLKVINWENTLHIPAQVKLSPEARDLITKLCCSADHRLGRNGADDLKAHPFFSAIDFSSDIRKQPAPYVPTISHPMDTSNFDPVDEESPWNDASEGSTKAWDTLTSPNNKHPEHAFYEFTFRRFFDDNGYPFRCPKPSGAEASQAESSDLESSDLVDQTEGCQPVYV
Excerpt: as §1

[3] = molecular target: T3, 363 human kinases (including Aurora A/B/C) (Homo sapiens, UniProt P51817); details: PRKX; for remaining activity at 0.1 µM: 100 nM; for remaining activity at 0.1 µM / remaining activity at 0.5 µM: read-out: % Enzyme Activity (relative to DMSO controls)
T3 sequence (P51817 1-358): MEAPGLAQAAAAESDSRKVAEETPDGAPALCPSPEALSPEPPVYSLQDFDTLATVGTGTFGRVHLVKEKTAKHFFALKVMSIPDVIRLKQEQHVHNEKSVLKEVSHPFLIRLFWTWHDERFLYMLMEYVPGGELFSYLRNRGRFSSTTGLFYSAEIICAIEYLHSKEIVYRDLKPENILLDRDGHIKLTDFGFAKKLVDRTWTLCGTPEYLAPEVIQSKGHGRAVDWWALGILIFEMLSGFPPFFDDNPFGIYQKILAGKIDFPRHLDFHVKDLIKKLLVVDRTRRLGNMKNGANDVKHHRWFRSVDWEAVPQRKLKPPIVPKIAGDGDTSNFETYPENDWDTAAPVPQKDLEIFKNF
Excerpt: as §1

[4] = molecular target: T4, 363 human kinases (including Aurora A/B/C) (Homo sapiens, UniProt Q6XUX3); details: RIPK5; for remaining activity at 0.1 µM: 100 nM; for remaining activity at 0.1 µM / remaining activity at 0.5 µM: read-out: % Enzyme Activity (relative to DMSO controls)
T4 sequence (Q6XUX3 1-929): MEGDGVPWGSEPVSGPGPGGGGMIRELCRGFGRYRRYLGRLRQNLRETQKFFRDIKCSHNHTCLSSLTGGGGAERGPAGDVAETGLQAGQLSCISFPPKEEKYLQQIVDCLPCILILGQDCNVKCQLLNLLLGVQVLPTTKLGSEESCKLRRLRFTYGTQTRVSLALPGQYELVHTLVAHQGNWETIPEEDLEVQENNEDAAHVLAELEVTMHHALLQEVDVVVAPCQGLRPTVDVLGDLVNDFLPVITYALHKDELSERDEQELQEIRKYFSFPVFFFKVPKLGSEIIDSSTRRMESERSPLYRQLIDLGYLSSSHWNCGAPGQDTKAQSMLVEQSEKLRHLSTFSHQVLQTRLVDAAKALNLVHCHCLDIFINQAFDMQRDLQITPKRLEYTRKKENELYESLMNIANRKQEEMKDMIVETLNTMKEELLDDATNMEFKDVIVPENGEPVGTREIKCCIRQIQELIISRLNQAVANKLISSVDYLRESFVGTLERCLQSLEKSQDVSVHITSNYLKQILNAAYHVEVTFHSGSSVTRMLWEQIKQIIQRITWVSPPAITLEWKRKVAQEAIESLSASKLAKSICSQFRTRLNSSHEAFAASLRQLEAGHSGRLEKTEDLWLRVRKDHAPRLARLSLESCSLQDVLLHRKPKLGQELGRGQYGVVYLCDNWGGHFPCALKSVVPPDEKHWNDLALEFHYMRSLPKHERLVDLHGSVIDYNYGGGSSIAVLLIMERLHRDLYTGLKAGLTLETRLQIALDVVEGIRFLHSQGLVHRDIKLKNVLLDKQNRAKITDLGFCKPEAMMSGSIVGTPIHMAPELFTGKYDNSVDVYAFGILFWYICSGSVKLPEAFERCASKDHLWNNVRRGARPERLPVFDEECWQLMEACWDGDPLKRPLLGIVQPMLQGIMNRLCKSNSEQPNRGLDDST
Excerpt: as §1

SMILES: CCn1cc(-c2ccnc3[nH]c(-c4cccc(CN(C)C)c4)cc23)c(-c2ccc(NC(=O)N(C)C)cc2)n1 [GSK1070916]
- remaining activity at 0.1 µM [1]: 95.3%
- remaining activity at 0.1 µM [2]: 90.6%
- remaining activity at 0.1 µM [3]: 92.6%
- remaining activity at 0.1 µM [4]: 114%

SMILES: O=C(O)[C@]1(Cc2cccc(Nc3nccs3)n2)CC[C@@H](Oc2cccc(Cl)c2F)CC1 [MK-5108]
- remaining activity at 0.1 µM [1]: 99.4%
- remaining activity at 0.5 µM ([1]; 500 nM): 93.6%
- remaining activity at 0.1 µM [2]: 96.8%
- remaining activity at 0.5 µM ([2]; 500 nM): 81.6%
- remaining activity at 0.1 µM [3]: 99.8%
- remaining activity at 0.5 µM ([3]; 500 nM): 97.6%
- remaining activity at 0.1 µM [4]: 96.6%
- remaining activity at 0.5 µM ([4]; 500 nM): 123%

SMILES: O=C(c1cccc(Cl)c1F)N1CCN(Cc2cccc(Nc3nccs3)n2)CC1 [MK-8745]
- % Enzyme Activity (relative to DMSO controls) ([1]; 500 nM): 88.59%
- remaining activity at 0.5 µM ([1]; 500 nM): 89.1%
- % Enzyme Activity (relative to DMSO controls) ([2]; 500 nM): 81.73%
- remaining activity at 0.5 µM ([2]; 500 nM): 81.8%
- % Enzyme Activity (relative to DMSO controls) ([3]; 500 nM): 95.41%
- remaining activity at 0.5 µM ([3]; 500 nM): 96.5%
- % Enzyme Activity (relative to DMSO controls) ([4]; 500 nM): 103.95%
- remaining activity at 0.5 µM ([4]; 500 nM): 105%

— publication PMC4685510, “A Cell Biologist’s Field Guide to Aurora Kinase Inhibitors” (Frontiers in Oncology, 2015)
